# Source: patent publication US4141986A, “Antibiotics 890A2 and 890A5” (Merck & Co., Inc., priority 1977, dated 1979)
# Assays:
# Type in all cases: cell-based
# [1] = tested on: Brucella bronchiseptica ATCC 4617; experiment: microbe, parasite or virus in culture; settings: Bordetella bronchiseptica, ATCC4617, read-out: Inhib. Zone Diam.
# [2] = tested on: Vibrio percolans + Aerobacter Lactamase MB-1272; experiment: In vitro antibacterial spectrum profile, agar diffusion, with Aerobacter lactamase; settings: Comamonas terrigena, read-out: Inhib. Zone Diam.
# [3] = tested on: Erwinia atroseptica ATCC 4466; experiment: In vitro antibacterial spectrum profile, agar diffusion; settings: Pectobacterium atrosepticum, ATCC4466, read-out: Inhib. Zone Diam.
# [4] = tested on: Pseudomonas stutzeri ATCC 11607; experiment: as above; settings: Stutzerimonas stutzeri, ATCC11607, read-out: Inhib. Zone Diam.
# [5] = tested on: Vibrio percolans resistant to ceph. C) MB-2566; experiment: as above; settings: Comamonas terrigena, read-out: Inhib. Zone Diam.
# [6] = tested on: Streptococcus faecalis MB-753; experiment: as above; settings: Enterococcus faecalis, MB753, read-out: Inhib. Zone Diam.
# [7] = tested on: Staphylococcus aureus ATCC 6538 P; experiment: as above
# [8] = tested on: Pseudomonas aeruginosa MB-979; experiment: as above; settings: read-out: Inhib. Zone Diam.
# [9] = tested on: Streptococcus agalactiae MB-2875; experiment: as above; settings: read-out: Inhib. Zone Diam.
# [10] = tested on: Corynebacterium pseudodiph. ATCC 9742; experiment: as above; settings: read-out: Inhib. Zone Diam.
# [11] = tested on: Vibrio percolans ATCC 8461; experiment: as above; settings: Comamonas terrigena, ATCC8461, read-out: Inhib. Zone Diam.
# [12] = tested on: Proteus mirabilis MB-3126; experiment: as above; settings: read-out: Inhib. Zone Diam.
# Sarcina lutea ATCC 9341 = experiment: as above; settings: Micrococcus luteus, ATCC9341, read-out: Inhib. Zone Diam.
# [13] = tested on: Bacillus subtilis ATCC 6633; experiment: as above
# [14] = tested on: Proteus vulgaris ATCC 21100; experiment: as above; settings: read-out: Inhib. Zone Diam.
# Bacillus sp. MB-633 = experiment: as above; settings: read-out: Inhib. Zone Diam.
# Protocol: (§1) The test to determine the antibiotic spectrum profile of antibiotic 890A2 is carried out by saturating 1/4 inch diameter paper discs in a solution of antibiotic 890A2 in 5% methanol at a concentration of 5 μg./ml.; air drying the saturated paper discs and placing them on the surface of 100 × 15 mm. petri plates containing 5 ml. of seeded nutrient agar plus 0.2% yeast extract.
# (§2) The test to determine the antibiotic spectrum profile of antibiotic 890A5 is carried out by application of a 0.015 ml. droplet of a 33 μg./ml. aqueous solution of the antibiotic on the surface of a 100 × 15 mm. petri plate containing 5 ml. of seeded nutrient agar plus 0.2% yeast extract.
# [15] = tested on: Xanthomonas vesicatoria MB-815; experiment: as above; settings: read-out: Inhib. Zone Diam.
# [16] = tested on: Streptoccocus faecium MB-2820; experiment: as above; settings: read-out: Inhib. Zone Diam.
# [17] = tested on: Salmonella gallinarum MB-1287; experiment: as above; settings: Salmonella enterica, read-out: Inhib. Zone Diam.
# [18] = tested on: Pseudomonas aeruginosa MB-2824; experiment: as above; settings: read-out: Inhib. Zone Diam.
# [19] = tested on: Aerobacter aerogenes MB-835; experiment: as above; settings: Klebsiella aerogenes, MB835, read-out: Inhib. Zone Diam.
# [20] = tested on: Staphylococcus aureus (res. methicillin) MB-2949; experiment: as above; settings: read-out: Inhib. Zone Diam.
# [21] = tested on: Staphylococcus aureus MB-698; experiment: as above; settings: read-out: Inhib. Zone Diam.
# [22] = tested on: Proteus vulgaris (episome) MB-2112; experiment: as above; settings: read-out: Inhib. Zone Diam.
# Protocol: as §1, §2
# ^a this episome confers resistance to tetracycline, chloramphenicol,
# kanamycin and streptomycin at a concentration of 20 μg./ml. and
# neomycin at a concentration of 25 μg./ml. and sulfa drugs.
# [23] = tested on: Escherichia coli ATCC 9637; experiment: as above; settings: read-out: Inhib. Zone Diam.
# [24] = tested on: Alcaligenes faecalis ATCC 213; experiment: as above; settings: read-out: Inhib. Zone Diam.
# Proteus vulgaris MB-1012 = experiment: as above; settings: read-out: Inhib. Zone Diam.
# [25] = 890A5 33 μg./ml., 0.015 ml. droplet
# [26] = 890A2 5 μg./ml., 1/4 inch paper disc
compound,measurement,setting,value
CC(=O)NC=CSC1=C(C(=O)O)N2C(=O)C(C(C)O)C2C1 (stereo not drawn) [Antibiotic 890A5],zone of inhibition at 33 µg/mL,[1],22 mm
same,zone of inhibition at 33 µg/mL,[2],36 mm
same,zone of inhibition at 33 µg/mL,[3]; [25],21 mm
same,zone of inhibition at 33 µg/mL,[4]; [25],14 mm
same,zone of inhibition at 33 µg/mL,[5],35 mm
same,zone of inhibition at 33 µg/mL,[6]; [25],0 mm
same,zone of inhibition at 33 µg/mL,"[7]; ATCC6538, 890A5 33 μg./ml., 0.015 ml. droplet, read-out: Inhib. Zone Diam.",34 mm
same,zone of inhibition at 33 µg/mL,"[8]; MB979, 890A5 33 μg./ml., 0.015 ml. droplet",0 mm
same,zone of inhibition at 33 µg/mL,"[9]; MB2875, 890A5 33 μg./ml., 0.015 ml. droplet",27 mm
same,zone of inhibition at 33 µg/mL,"[10]; ATCC9742, 890A5 33 μg./ml., 0.015 ml. droplet",33 mm
same,zone of inhibition at 33 µg/mL,[11]; [25],32 mm
same,zone of inhibition at 33 µg/mL,"[12]; MB3126, 890A5 33 μg./ml., 0.015 ml. droplet",20 mm
same,zone of inhibition at 33 µg/mL,Sarcina lutea ATCC 9341; [25],40 mm
same,zone of inhibition at 33 µg/mL,"[13]; ATCC6633, read-out: Inhib. Zone Diam.",27 mm
same,zone of inhibition at 33 µg/mL,"[14]; ATCC21100, 890A5 33 μg./ml., 0.015 ml. droplet",27 mm
same,zone of inhibition at 33 µg/mL,"Bacillus sp. MB-633; SP.MB633, 890A5 33 μg./ml., 0.015 ml. droplet",18 mm
same,zone of inhibition at 33 µg/mL,"[15]; MB815, 890A5 33 μg./ml., 0.015 ml. droplet",20 mm
same,zone of inhibition at 33 µg/mL,[16]; [25],0 mm
same,zone of inhibition at 33 µg/mL,[17]; [25],26 mm
same,zone of inhibition at 33 µg/mL,"[18]; MB2824, 890A5 33 μg./ml., 0.015 ml. droplet",0 mm
same,zone of inhibition at 33 µg/mL,[19]; [25],24 mm
same,zone of inhibition at 33 µg/mL,[20],15 mm
same,zone of inhibition at 33 µg/mL,"[21]; MB698, 890A5 33 μg./ml., 0.015 ml. droplet",35 mm
same,zone of inhibition at 33 µg/mL,[22]; [25],23 mm
same,zone of inhibition at 33 µg/mL,"[23]; ATCC9637, 890A5 33 μg./ml., 0.015 ml. droplet",24 mm
same,zone of inhibition at 33 µg/mL,"[24]; ATCC213, 890A5 33 μg./ml., 0.015 ml. droplet",25 mm
same,zone of inhibition at 33 µg/mL,"Proteus vulgaris MB-1012; MB1012, 890A5 33 μg./ml., 0.015 ml. droplet",23 mm
CC(=O)NC=CSC1=C(C(=O)O)N2C(=O)C(C(C)O)C2C1 (stereo not drawn) [Antibiotic 890A2],zone of inhibition at 5 µg/mL,[1],29 mm
same,zone of inhibition at 5 µg/mL,[2],31 mm
same,zone of inhibition at 5 µg/mL,[3]; [26],26 mm
same,zone of inhibition at 5 µg/mL,[4]; [26],19 mm
same,zone of inhibition at 5 µg/mL,[5],11 mm
same,zone of inhibition at 5 µg/mL,[6]; [26],12 mm
same,zone of inhibition at 5 µg/mL,"[7]; ATCC6538, read-out: Inhib. Zone Diam.",34 mm
same,zone of inhibition at 5 µg/mL,"[8]; MB979, 890A2 5 μg./ml., 1/4 inch paper disc",0 mm
same,zone of inhibition at 5 µg/mL,"[9]; MB2875, 890A2 5 μg./ml., 1/4 inch paper disc",32 mm
same,zone of inhibition at 5 µg/mL,"[10]; ATCC9742, 890A2 5 μg./ml., 1/4 inch paper disc",35 mm
same,zone of inhibition at 5 µg/mL,[11]; [26],31 mm
same,zone of inhibition at 5 µg/mL,"[12]; MB3126, 890A2 5 μg./ml., 1/4 inch paper disc",22 mm
same,zone of inhibition at 5 µg/mL,Sarcina lutea ATCC 9341; [26],42 mm
same,zone of inhibition at 5 µg/mL,"[13]; ATCC6633, 890A2 5 μg./ml., 1/4 inch paper disc, read-out: Inhib. Zone Diam.",42 mm
same,zone of inhibition at 5 µg/mL,"[14]; ATCC21100, 890A2 5 μg./ml., 1/4 inch paper disc",30 mm
same,zone of inhibition at 5 µg/mL,"Bacillus sp. MB-633; SP.MB633, 890A2 5 μg./ml., 1/4 inch paper disc",40 mm
same,zone of inhibition at 5 µg/mL,"[15]; MB815, 890A2 5 μg./ml., 1/4 inch paper disc",29 mm
same,zone of inhibition at 5 µg/mL,[16]; [26],22 mm
same,zone of inhibition at 5 µg/mL,[17]; [26],33 mm
same,zone of inhibition at 5 µg/mL,"[18]; MB2824, 890A2 5 μg./ml., 1/4 inch paper disc",13 mm
same,zone of inhibition at 5 µg/mL,[19]; [26],27 mm
same,zone of inhibition at 5 µg/mL,[20]; [26],11 mm
same,zone of inhibition at 5 µg/mL,"[21]; MB698, 890A2 5 μg./ml., 1/4 inch paper disc",30 mm
same,zone of inhibition at 5 µg/mL,[22]; [26],33 mm
same,zone of inhibition at 5 µg/mL,"[23]; ATCC9637, 890A2 5 μg./ml., 1/4 inch paper disc",29 mm
same,zone of inhibition at 5 µg/mL,"[24]; ATCC213, 890A2 5 μg./ml., 1/4 inch paper disc",34 mm
same,zone of inhibition at 5 µg/mL,"Proteus vulgaris MB-1012; MB1012, 890A2 5 μg./ml., 1/4 inch paper disc",11 mm
